Results as given in PubChem BioAssay (NCI).
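Exposure lasted 48 hours, with cells grown in 96-well plates and compounds tested at five concentrations. At the GI50, growth is halved. TGI marks complete inhibition of growth.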

Columns and labels:
Assay in all cases: NCI tumour cell line growth inhibition, 48 h
SNB-75 CNS = test system: SNB-75 CNS
SF-295 CNS = test system: SF-295 CNS
786-0 renal = test system: 786-0 renal
DU-145 prostate = test system: DU-145 prostate
SNB-19 CNS = test system: SNB-19 CNS
LOX IMVI melanoma = test system: LOX IMVI melanoma
NCI/ADR-RES ovarian = test system: NCI/ADR-RES ovarian
HCT-116 colon = test system: HCT-116 colon
SR leukemia = test system: SR leukemia
MDA-MB-231 breast = test system: MDA-MB-231 breast

Row | SMILES | GI50 (SNB-75 CNS) | TGI (SNB-75 CNS) | GI50 (SF-295 CNS) | TGI (SF-295 CNS) | GI50 (786-0 renal) | TGI (786-0 renal) | GI50 (DU-145 prostate) | TGI (DU-145 prostate) | GI50 (SNB-19 CNS) | TGI (SNB-19 CNS) | GI50 (LOX IMVI melanoma) | TGI (LOX IMVI melanoma) | GI50 (NCI/ADR-RES ovarian) | TGI (NCI/ADR-RES ovarian) | GI50 (HCT-116 colon) | TGI (HCT-116 colon) | GI50 (SR leukemia) | TGI (SR leukemia) | GI50 (MDA-MB-231 breast) | TGI (MDA-MB-231 breast)
1 | COCCOC(=O)C1=C(C)NC2=C(C(=O)CC(c3ccccc3OC)C2)C1c1cccc(O)c1 (centres undefined) | 2.43 µM | 30.9 µM | 11.5 µM | 35.2 µM | 12.2 µM | 51.6 µM | 23.5 µM | > 91.9 µM | 16 µM | > 100 µM | 9.04 µM | 30.4 µM | 35.9 µM | > 100 µM | 12.8 µM | 35.4 µM | 8.76 µM | > 59.6 µM | 13 µM | > 72.8 µM
2 | CCC(Sc1nnc2c3ccccc3n(CC)c2n1)C(=O)Nc1ccccc1OC (centres undefined) | 10.8 µM | > 100 µM | > 100 µM | > 100 µM | > 100 µM | > 100 µM | > 100 µM | > 100 µM | > 100 µM | > 100 µM | > 100 µM | > 100 µM | > 100 µM | > 100 µM | 48.5 µM | > 100 µM | > 100 µM | > 100 µM | 52.5 µM | > 100 µM
3 | O=C1OC(c2ccc(O)c(-c3ccccc3)c2)(c2ccc(O)c(-c3ccccc3)c2)c2c(Cl)c(Cl)c(Cl)c(Cl)c21 | – | > 100 µM | – | > 100 µM | – | > 100 µM | – | > 100 µM | – | > 100 µM | – | > 100 µM | – | > 100 µM | – | > 100 µM | – | > 100 µM | – | > 100 µM
4 | O=C(Nc1cc(C(F)(F)F)ccc1F)Nc1n[nH]c2ccccc12 | 40.1 µM | > 100 µM | > 100 µM | > 100 µM | > 100 µM | > 100 µM | > 100 µM | > 100 µM | > 100 µM | > 100 µM | > 100 µM | > 100 µM | > 100 µM | > 100 µM | > 100 µM | > 100 µM | 55.4 µM | > 100 µM | > 100 µM | > 100 µM
5 | O=C(O)C1C2CC3C(OC(=O)C31)C2Br (centres undefined) | – | > 100 µM | – | > 100 µM | – | > 100 µM | – | > 100 µM | – | > 100 µM | – | > 100 µM | – | > 100 µM | – | > 100 µM | – | 26.2 µM | – | > 100 µM
6 | CCc1c2c(nc3cc4c(cc13)OCO4)-c1cc3c(c(=O)n1C2)COC(=O)[C@@]3(CC)OC(=O)CN | < 0.01 µM | < 0.045 µM | < 0.01 µM | < 0.0166 µM | < 0.01 µM | < 0.0127 µM | < 0.01 µM | 0.0426 µM | < 0.01 µM | – | < 0.01 µM | 0.0902 µM | < 0.01 µM | < 0.0104 µM | 0.0214 µM | 0.0666 µM | < 0.01 µM | < 0.0389 µM | 0.195 µM | 15 µM
7 | CCCCCCCCCCCCCCCc1cc(O)ccc1N | 4.76 µM | 68.9 µM | 3.46 µM | > 100 µM | 2.77 µM | 37.2 µM | > 100 µM | > 100 µM | > 100 µM | > 100 µM | 1.39 µM | 9.41 µM | 5.81 µM | 68.8 µM | > 100 µM | > 100 µM | 2.18 µM | 23.4 µM | > 31.1 µM | > 100 µM
